The source of these data is patent US12310944B2 (priority 2019, dated 2025).

One series relates to PC-12 neural cell line. In words: Toxicity test in PC-12 nerve cell (MTT). The format is cell-based. As to conditions: PC-12 cells; for SR(%) cell survival rate, 20 μM: 20 μM compound for 24 h; for SR(%) cell survival rate, 50 μM: 50 μM compound for 24 h. The protocol:
Toxicity Test in PC-12 Nerve Cell:
Drugs and reagents: Test compounds, DMEM medium (01-050-1A) purchased from Biological Industries, FBS fetal bovine serum (04-001-1A) purchased from Biological Industries, MTT thiazolyl blue reagent (KGT525500) purchased from KeyGEN BioTECH.
(§1) Instrument: THERMO Varioskan Flash full-wavelength multifunctional microplate reader.
About 3×10^3 PC-12 cells were evenly mixed in 0.1 mL of DMEM medium containing 10% FBS, and plated on a 96-well bottom plate, and incubated overnight at 37° C. in an environment containing 5% CO2. The 20 μM and 50 μM compounds diluted in 0.1 mL of DMEM medium were treated on the cells for 24 hours. Then MTT reagent was added to the well plate, and the plate was incubated at 37° C. for 2 to 4 hours. The color reaction was measured at 492 nm using a spectrophotometer (Thermo, multiskan FC).

Series [1] deals with T1, eqBuChE (BuChE, E.C.3.1.1.8, selected from horse serum) (Equus caballus, UniProt P81908).
T1 construct: BuChE (E.C.3.1.1.8, selected from horse serum); purchased Sigma; host or cells: horse serum
T1 sequence (P81908 whole entry): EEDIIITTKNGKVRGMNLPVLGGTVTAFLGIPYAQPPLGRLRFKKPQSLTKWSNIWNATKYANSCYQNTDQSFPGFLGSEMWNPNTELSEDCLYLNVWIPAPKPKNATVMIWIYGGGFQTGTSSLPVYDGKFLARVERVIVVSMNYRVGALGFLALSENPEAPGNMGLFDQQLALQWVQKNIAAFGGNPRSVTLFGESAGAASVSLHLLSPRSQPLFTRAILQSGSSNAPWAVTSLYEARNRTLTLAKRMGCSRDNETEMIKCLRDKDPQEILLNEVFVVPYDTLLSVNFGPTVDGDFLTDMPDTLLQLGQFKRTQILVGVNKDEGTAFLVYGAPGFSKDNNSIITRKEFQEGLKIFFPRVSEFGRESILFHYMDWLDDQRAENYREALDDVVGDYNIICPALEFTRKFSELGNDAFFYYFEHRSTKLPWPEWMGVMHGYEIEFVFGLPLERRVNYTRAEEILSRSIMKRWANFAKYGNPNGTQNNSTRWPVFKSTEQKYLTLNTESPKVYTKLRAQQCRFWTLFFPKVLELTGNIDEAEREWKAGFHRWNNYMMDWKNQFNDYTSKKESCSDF
In words: Cholinesterase inhibitory activity (DTNB/BTC), eqBuChE. It counts as biochemical.
Source text: Determination of Cholinesterase Inhibitory Activity:
Drugs and reagents: Test compounds, AChE (E.C.3.1.1.7, Type VI-S, selected from electric eel), BuChE (E.C.3.1.1.8, selected from horse serum), 5,5′-dithiobis(2-nitrobenzoic acid) (DTNB), acetylthiocholine (ATC) iodide and butyrylthiocholine (BTC) iodide were all purchased from Sigma; the positive control tacrine hydrochloride (9-amino-1,2,3,4-tetrahydroacridine hydrochloride hydrate) was purchased from BioTrend.
as §1
(1) Formulation of buffer: 13.6 g of potassium dihydrogen phosphate was dissolved in 1 L of water, and pH was adjusted with potassium hydroxide to reach pH=8±0.1. The solution was stored at 4° C. for later use.
(2) Formulation of 0.01 M DTNB solution: 0.396 g of DTNB and 0.15 g of sodium bicarbonate were dissolved in 100 mL of water to prepare a 0.01 M DTNB solution, which was stored at −30° C. for later use.
(3) Formulation of 0.075 M ATC and BTC solutions: 0.217 g of ATC was dissolved in 10 mL of water to prepare a 0.075 M ATC solution, which was stored at −30° C. for later use; 0.237 g of BTC was dissolved in 10 mL of water to prepare a 0.075 M BTC solution, which was stored at −30° C. for later use.
(4) Formulation of AChE and BuChE solutions: 5,000 units of AChE were dissolved in 1 mL of 1% gel solution, and then diluted to 100 mL with water to prepare a AChE solution with a concentration of 5 units/mL, which was stored at −30° C. for later use; 5,000 units of BuChE were dissolved in 1 mL of 1% gel solution, and then diluted to 100 mL with water to prepare a BuChE solution with a concentration of 5 units/mL, which was stored at −30° C. for later use.
(5) Formulation of test substance solution: The test compound was dissolved in ethanol to obtain a solution with a concentration of 10^−3 M (ethanol would not affect the test results), and then diluted with water to prepare solutions with concentrations of […], 10^−5, 10^−6, 10^−7, 10^−8, 10^−9, and 10^−10 M, respectively.
Before the start of the experiment, all the solutions as used were warmed to room temperature, and the AChE and BuChE solutions were diluted 1-fold with water to prepare an enzyme solution with a concentration of 2.5 units/mL. The background UV absorbance was measured with a blank buffer (3 mL) as a subtraction value. Firstly, 100 μL of test compound solution, 100 μL of DTNB solution, and 100 μL of enzyme solution were added to 3 mL of buffer. After adding 20 μL of ATC or BTC solution to trigger the reaction, the time was recorded immediately and the test solution was mixted quickly and uniformly at the same time. After 2 minutes, the UV absorbance was measured at a wavelength of […]. The blank control group was measured with an equal volume of water instead of the test substance solution. All tests were performed three times in parallel. The UV absorption value of the blank control group was taken as 100%, the absorbance (OD value) of the test compound at each concentration was recorded, and GraphPad Prism™ (GraphPad Software, San Diego, CA, USA) software was used to analyze the results in a non-linear regression analysis model to calculate the corresponding IC50 values, as shown in Table 1.

The target in another series is hBuChE (Homo sapiens, UniProt P06276). Kind of series: Cholinesterase inhibitory activity (DTNB/BTC), hBuChE. The format is biochemical. The note with it: mean ± SEM.
[2] abbreviates: read-out: IC50 (nM) ± SEM eqBuChE.
Setting [3] is: eqBuChE, mean ± SEM, three parallel tests.

As usually defined, the IC50 is the concentration that inhibits the measured activity by half.

Read-outs that look alike come from different tables or passages of the source.

`CCN(CC)Cc1ccccc1CNC(=O)c1cccc(NC(=O)c2ccc(C)c(C)c2)c1` [Compound 23, N-(3-((2-((diethylamino)methyl)benzyl)carbamoyl)phenyl)-3,4-dimethylbenzamide]: the “SR(%) cell survival rate, 20 μM” value in the series with PC-12 neural cell line is 85.05%. Moreover, the “SR(%) cell survival rate, 50 μM” value in the series on PC-12 neural cell line is 80.72%. Moreover, the 50% inhibitory concentration (IC50) in series [1] (setting [2]) was 0.8 ± 0.24 nM; at hBuChE, 1.53 ± 0.55 nM.
For `CCN(CC)Cc1cccc(CNC(=O)c2cccc(NC(=O)c3cccs3)c2)c1` [Compound 37, N-(3-((3-((diethylamino)methyl)benzyl)carbamoyl)phenyl)thiophene-2-carboxamide], in that order: 92.05%, 82.03%, 12.6 ± 0.86 nM and 32.9 ± 15.7 nM.
Turning to `CCN(CC)Cc1ccccc1CNC(=O)c1cccc(NC(=O)c2ccc(C)cc2)c1` [Compound 22, N-(2-((diethylamino)methyl)benzyl)-3-(4-methylbenzamido)benzamide], in the series with PC-12 neural cell line, the “SR(%) cell survival rate, 20 μM” value is recorded as 93.35% and the “SR(%) cell survival rate, 50 μM” value amounted to 89.42%. The IC50 in series [1] (setting [2]) came out at 0.98 ± 0.21 nM. Also, half-maximal inhibition against hBuChE (IC50) required 1.54 ± 0.56 nM.
`CCN(CC)Cc1ccccc1CNC(=O)c1cccc(NC(=O)c2ccc(OC)cc2)c1` [Compound 26]: in the series with PC-12 neural cell line, the “SR(%) cell survival rate, 20 μM” value worked out at 97.20% and the “SR(%) cell survival rate, 50 μM” value was found to be 82.25%. This molecule also registered a concentration for half-maximal inhibition (IC50) in series [1] (setting [3]) of 0.55 ± 0.09 nM. At hBuChE, this molecule returned an IC50 of 1.04 ± 0.52 nM.
In the case of `CCN(CC)Cc1ccccc1CNC(=O)c1cccc(NC(=O)c2ccc([N+](=O)[O-])cc2)c1` [Compound 32], in the series with PC-12 neural cell line, the “SR(%) cell survival rate, 20 μM” value turned out to be 97.42% and the “SR(%) cell survival rate, 50 μM” value turned out to be 84.65%. Also, the IC50 in series [1] (setting [2]) was found to be 22.6 ± 0.98 nM. Besides, at hBuChE, it took 30.9 ± 3.26 nM to reach half-maximal inhibition (IC50).
The corresponding values for `CCN(CC)Cc1ccccc1CNC(=O)c1cccc(NC(=O)c2ccccc2F)c1` [Compound 18, N-(3-((2-((diethylamino)methyl)benzyl)carbamoyl)phenyl)-2-fluorobenzamide] are 80.26%, 73.56%, 3.5 ± 1.1 nM and 17.4 ± 1.98 nM.
For `CCN(CC)Cc1ccccc1CNC(=O)c1cccc(NC(=O)c2ccc(O)cc2)c1` [Compound 12, N-(2-((diethylamino)methyl)benzyl)-3-(4-hydroxybenzamido)benzamide], in that order: 91.46%, 89.64%, 0.79 ± 0.19 nM and 2.45 ± 0.37 nM.
Regarding `CCN(CC)Cc1ccccc1CNC(=O)c1cccc(NC(=O)c2ccco2)c1` [Compound 6, N-(3-((2-((diethylamino)methyl)benzyl)carbamoyl)phenyl)furan-2-carboxamide], in the series on PC-12 neural cell line, the “SR(%) cell survival rate, 20 μM” value is 95.37% and the “SR(%) cell survival rate, 50 μM” value is listed as 81.46%. In series [1] (setting [3]), this molecule yielded a 50% inhibitory concentration (IC50) of 0.79 ± 0.09 nM. In addition, on hBuChE, it took 0.63 ± 0.13 nM to reach half-maximal inhibition (IC50).
Take `CCN(CC)Cc1ccccc1CNC(=O)c1cccc(NC(=O)c2ccc(N)cc2)c1` [Compound 33]: in the series with PC-12 neural cell line, the “SR(%) cell survival rate, 20 μM” value came to 90.21% and the “SR(%) cell survival rate, 50 μM” value is on record as 74.62%. Further, the IC50 in series [1] (setting [2]) is 1.56 ± 0.67 nM. This molecule showed a concentration for half-maximal inhibition (IC50) at hBuChE of 7.99 ± 2.53 nM.
The corresponding values for `CCN(CC)Cc1ccccc1CNC(=O)c1cccc(NC(=O)c2ccccn2)c1` [Compound 7, N-(3-((2-((diethylamino)methyl)benzyl)carbamoyl)phenyl)-pyridineamide] are 92.36%, 75.46%, 0.34 ± 0.02 nM and 0.78 ± 0.63 nM.
With `CCN(CC)Cc1ccccc1CNC(=O)c1cccc(NC(=O)c2cccc(F)c2)c1` [Compound 17, N-(2-((diethylamino)methyl)benzyl)-3-(3-fluorobenzamido)benzamide], in the series with PC-12 neural cell line, the “SR(%) cell survival rate, 20 μM” value is 98.40% and the “SR(%) cell survival rate, 50 μM” value came to 89.75%. Inhibition in series [1] (setting [3]) was half-maximal at 4.55 ± 0.74 nM (IC50). Besides, half-maximal inhibition at hBuChE (IC50) required 25.2 ± 19.1 nM.
Turning to `CCN(CC)Cc1ccccc1CNC(=O)c1cccc(NC(=O)c2ccc(C(=O)OC)cc2)c1` [Compound 29, methyl 4-((3-((2-((diethylamino)methyl)benzyl)carbamoyl)phenyl)carbamoyl)benzoate], in the series on PC-12 neural cell line, the “SR(%) cell survival rate, 20 μM” value is on record as 99.42% and the “SR(%) cell survival rate, 50 μM” value was determined as 93.32%. Further, the concentration for half-maximal inhibition (IC50) in series [1] (setting [2]) was found to be 2.48 ± 0.26 nM. Besides, the IC50 at hBuChE amounted to 9.06 ± 0.74 nM.
For `CCN(CC)Cc1ccccc1CNC(=O)c1cccc(NC(=O)c2cccc(OC)c2)c1` [Compound 27], in that order: 91.23%, 83.60%, 4.91 ± 1.35 nM and 12.8 ± 6.01 nM.
Turning to `CCN(CC)Cc1ccccc1CNC(=O)c1cccc(NC(=O)c2ccc(C#N)cc2)c1` [Compound 31, 3-(4-cyanobenzamido)-N-(2-((diethylamino)methyl)benzyl)benzamide], in the series on PC-12 neural cell line, the “SR(%) cell survival rate, 20 μM” value is given as 94.67%. Moreover, the “SR(%) cell survival rate, 50 μM” value with PC-12 neural cell line is on record as 91.59%. Besides, the IC50 in series [1] (setting [2]) turned out to be 15.8 ± 2.84 nM; against hBuChE, 16.5 ± 15.1 nM.
On to `CCN(CC)Cc1ccccc1CNC(=O)c1cccc(NC(=O)c2ncc[nH]2)c1` [Compound 9, N-(3-((2-((diethylamino)methyl)benzyl)carbamoyl)phenyl)-imidazole-2-carboxamide], for which, in the series on PC-12 neural cell line, the “SR(%) cell survival rate, 20 μM” value was found to be 80.36% and the “SR(%) cell survival rate, 50 μM” value was determined as 70.74%. In addition, in series [1] (setting [2]), the IC50 was 0.52 ± 0.1 nM. The molecule also returned an IC50 against hBuChE of 1.91 ± 0.24 nM.
The corresponding values for `CCN(CC)Cc1ccccc1CNC(=O)c1cccc(NC(=O)c2ccc(C=O)cc2)c1` [Compound 14, N-(2-((diethylamino)methyl)benzyl)-3-(4-formanilide)benzamide] are 86.34%, 81.34%, 0.89 ± 0.63 nM and 2.09 ± 0.99 nM.
On to `CN(C)Cc1ccccc1CNC(=O)c1cccc(NC(=O)c2cccs2)c1` [Compound 34, N-(3-((2-((dimethylamino)methyl)benzyl)carbamoyl)phenyl)thiophene-2-carboxamide], for which the “SR(%) cell survival rate, 20 μM” value in the series with PC-12 neural cell line came out at 96.10%. The “SR(%) cell survival rate, 50 μM” value with PC-12 neural cell line was 94.5%. Further, the values for the half-maximal inhibitory concentration (IC50) (in series [1] (setting [3]); against hBuChE) were 0.29 ± 0.05 nM and 0.75 ± 0.27 nM, respectively.
With `CCN(CC)Cc1ccccc1CNC(=O)c1cccc(NC(=O)c2ccc[nH]2)c1` [Compound 5, N-(3-((2-((diethylamino)methyl)benzyl)carbamoyl)phenyl)-pyrrole-2-carboxamide], in the series with PC-12 neural cell line, the “SR(%) cell survival rate, 20 μM” value was determined as 97.53% and the “SR(%) cell survival rate, 50 μM” value is reported as 92.47%. The IC50 in series [1] (setting [2]) turned out to be 0.87 ± 0.03 nM. This molecule also yielded an IC50 against hBuChE of 2.99 ± 0.67 nM.
Regarding `CCN(CC)Cc1ccccc1CNC(=O)c1cccc(NC(=O)c2ccc(C(C)C)cc2)c1` [Compound 24], the “SR(%) cell survival rate, 20 μM” value with PC-12 neural cell line was determined as 97.02%. Further, the “SR(%) cell survival rate, 50 μM” value in the series on PC-12 neural cell line came out at 86.21%. Besides, the values for the half-maximal inhibitory concentration (IC50) (in series [1] (setting [2]); at hBuChE) were 0.58 ± 0.67 nM and 2.08 ± 0.73 nM, respectively.
